Results from patent US20220160716A1 (SORBONNE UNIVERSITE, priority 2019, published 2022).

Columns and labels:
CK1 = experiment: Protein kinase catalytic activity assay, CK1; assay type: biochemical; conditions: read-out: IC50 of protein kinases, CK1
DYRK1A = biological target: T1, DYRK1A (Homo sapiens, UniProt Q13627); experiment: Protein kinase catalytic activity assay, DYRK1A; assay type: biochemical; conditions: read-out: IC50 of protein kinases, DYRK1A
T1 construct: made in house

CLK1 = biological target: T2, CLK1 (Homo sapiens, UniProt P49759); experiment: Protein kinase catalytic activity assay, CLK1; assay type: biochemical; conditions: read-out: IC50 of protein kinases, CLK1
T2 construct: made in house

GSK3 = GSK3 (Homo sapiens, UniProt P49841); experiment: Protein kinase catalytic activity assay, GSK3; assay type: biochemical; conditions: read-out: IC50 of protein kinases, GSK3
CDK9/T = biological target: T3, CDK9/T (Homo sapiens, UniProt P50750); experiment: Protein kinase catalytic activity assay, CDK9/cyclin T; assay type: biochemical; conditions: activator cyclin T; read-out: IC50 of protein kinases, CDK9/T
T3 construct: made in house

ABCB4-I541F = ABCB4-I541F (Homo sapiens, UniProt P21439, I541F); experiment: Maturation of ABCB4-I541F by immunoblot in HEK cells; assay type: cell-based; design: The subcloning of wild type (WT) ABCB4, isoform A (NM_000443.3), into pcDNA3 vector has been described; expressed in transfected cells; host or cells: HEK-293 (immunoblot, PC secretion); conditions: HEK cells, 100 μM, 16 hours, immunoblot
Method: (§1) Cyclosporin A (CsA) was from Santa Cruz Biotechnologies (Dallas, Tex.). […] Each compound was solubilized in dimethylsulfoxide (DMSO) as 1000× concentrated stock solutions in order to treat cells with 5 μM to 100 μM final concentrations, using DMSO as control vehicle at the same dilution (0.1% DMSO for all conditions). The cells were treated 24 hours post-transfection with these drugs during 16 hours, except for the viability assays for which cells were treated during three days. After drug treatment, cells were used for immunoanalyses, cell viability assays or PC secretion assays.
Western blots and indirect immunofluorescence were performed as previously described (2, 12). […] Signals were detected with ECL prime western blotting detection reagent (GE Healthcare, Velizy-Villacoublay, France) and quantified in the linear range of detection using ImageJ 1.50i software (U.S. National Institutes of Health, Bethesda, Md.).

CDK2/A = biological target: T4, CDK2/A (Homo sapiens, UniProt P24941); experiment: Protein kinase catalytic activity assay, CDK2/cyclin A; assay type: biochemical; conditions: activator cyclin A; read-out: IC50 of protein kinases, CDK2/A
T4 construct: made in house

CDK5/p25 = biological target: T5, CDK5/p25 (Homo sapiens, UniProt Q00535); assay type: biochemical; conditions: activator p25; read-out: IC50 of protein kinases, CDK5/p25
T5 construct: made in house

HEK cells = experiment: Cell viability MTT assay in HEK cells; conditions: three days
Method: as §1
Cell viability was assessed by the conversion of MTT (3-[4,5-dimethylthiazol-2-yl]-2,5 diphenyl tetrazolium bromide) into formazan crystals by living cells, as described (14). […] These conditions were optimized in order to maintain the absorbance at 540 nm of the blanks below 0.1 OD unit (negative controls) and the absorbance at 540 nm for untreated cells between 1.0 and 1.3 OD units (positive controls). Then culture media were gently washed out, cells were lysed in 100 μL of pure DMSO and absorbance at 540 nm was measured using a multiplate cytofluorimeter SpectraFluor from Tecan (Männedorf, Switzerland). Cell viability was calculated for each triplicate after background subtraction and expressed as percentage of the mean for cells treated with vehicle only.

T3 sequence (P50750 whole entry, species assumed): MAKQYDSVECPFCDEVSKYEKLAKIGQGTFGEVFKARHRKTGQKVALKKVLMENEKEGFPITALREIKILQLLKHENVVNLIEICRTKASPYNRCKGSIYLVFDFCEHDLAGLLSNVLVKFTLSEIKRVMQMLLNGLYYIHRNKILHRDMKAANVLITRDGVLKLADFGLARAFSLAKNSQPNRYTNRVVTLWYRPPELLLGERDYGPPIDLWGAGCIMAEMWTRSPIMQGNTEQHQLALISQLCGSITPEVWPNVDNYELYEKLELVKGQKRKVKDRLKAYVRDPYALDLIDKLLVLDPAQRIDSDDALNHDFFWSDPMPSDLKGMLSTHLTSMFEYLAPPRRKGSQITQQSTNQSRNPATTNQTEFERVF
T3 sequence (O60563 whole entry partner, species assumed): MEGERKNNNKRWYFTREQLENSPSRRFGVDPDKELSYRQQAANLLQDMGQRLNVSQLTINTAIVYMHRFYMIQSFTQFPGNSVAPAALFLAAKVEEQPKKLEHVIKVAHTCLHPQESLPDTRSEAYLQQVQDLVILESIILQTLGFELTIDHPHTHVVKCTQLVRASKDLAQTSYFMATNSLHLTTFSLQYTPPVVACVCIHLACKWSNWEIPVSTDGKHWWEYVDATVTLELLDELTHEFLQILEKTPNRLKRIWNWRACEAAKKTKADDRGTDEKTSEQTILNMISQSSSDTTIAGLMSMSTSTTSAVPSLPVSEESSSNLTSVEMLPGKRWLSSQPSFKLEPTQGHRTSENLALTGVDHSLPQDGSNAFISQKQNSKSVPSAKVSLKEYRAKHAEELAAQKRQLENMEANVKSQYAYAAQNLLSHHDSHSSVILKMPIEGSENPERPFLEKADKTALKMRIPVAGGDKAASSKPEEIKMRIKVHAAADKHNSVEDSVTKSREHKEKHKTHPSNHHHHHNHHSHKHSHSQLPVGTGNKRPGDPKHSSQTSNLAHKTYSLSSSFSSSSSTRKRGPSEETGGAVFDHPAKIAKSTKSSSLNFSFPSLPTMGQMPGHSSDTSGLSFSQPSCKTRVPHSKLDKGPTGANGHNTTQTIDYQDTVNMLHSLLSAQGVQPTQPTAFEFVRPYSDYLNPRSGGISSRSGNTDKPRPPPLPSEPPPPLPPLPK
Sequence of ABCB4-I541F (P21439 1-1279 isoform P21439-2 I541F): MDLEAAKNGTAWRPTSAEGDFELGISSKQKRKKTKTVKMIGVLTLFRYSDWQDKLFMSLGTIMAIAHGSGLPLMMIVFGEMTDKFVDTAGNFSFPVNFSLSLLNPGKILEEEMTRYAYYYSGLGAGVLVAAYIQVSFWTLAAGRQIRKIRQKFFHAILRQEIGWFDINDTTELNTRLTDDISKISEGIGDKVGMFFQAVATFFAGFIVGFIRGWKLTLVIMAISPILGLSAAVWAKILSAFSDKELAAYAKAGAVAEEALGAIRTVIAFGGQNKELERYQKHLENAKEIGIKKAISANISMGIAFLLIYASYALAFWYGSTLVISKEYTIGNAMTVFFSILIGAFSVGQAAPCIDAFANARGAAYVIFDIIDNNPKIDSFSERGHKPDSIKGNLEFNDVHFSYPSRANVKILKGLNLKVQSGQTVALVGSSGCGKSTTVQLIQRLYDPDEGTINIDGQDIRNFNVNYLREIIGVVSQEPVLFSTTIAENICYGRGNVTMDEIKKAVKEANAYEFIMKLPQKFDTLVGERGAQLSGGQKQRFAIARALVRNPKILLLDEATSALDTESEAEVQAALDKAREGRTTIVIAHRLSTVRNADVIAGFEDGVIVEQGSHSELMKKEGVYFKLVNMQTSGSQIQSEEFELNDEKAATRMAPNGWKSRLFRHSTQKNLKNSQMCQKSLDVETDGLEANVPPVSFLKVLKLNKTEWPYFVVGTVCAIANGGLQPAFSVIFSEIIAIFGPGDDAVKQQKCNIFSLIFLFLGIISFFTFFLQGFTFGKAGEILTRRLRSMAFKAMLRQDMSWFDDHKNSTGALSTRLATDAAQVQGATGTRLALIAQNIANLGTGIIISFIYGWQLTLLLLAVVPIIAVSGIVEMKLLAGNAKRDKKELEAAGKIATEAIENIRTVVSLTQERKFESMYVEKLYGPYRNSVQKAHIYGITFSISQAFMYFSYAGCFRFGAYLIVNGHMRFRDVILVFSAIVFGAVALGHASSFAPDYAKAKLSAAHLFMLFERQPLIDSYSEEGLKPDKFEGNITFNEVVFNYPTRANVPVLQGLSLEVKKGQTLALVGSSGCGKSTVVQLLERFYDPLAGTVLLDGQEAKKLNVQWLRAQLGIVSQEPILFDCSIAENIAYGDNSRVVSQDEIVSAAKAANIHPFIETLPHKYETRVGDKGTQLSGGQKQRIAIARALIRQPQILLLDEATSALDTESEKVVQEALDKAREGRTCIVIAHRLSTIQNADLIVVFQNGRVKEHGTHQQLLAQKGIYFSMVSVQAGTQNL
T2 sequence (P49759 whole entry): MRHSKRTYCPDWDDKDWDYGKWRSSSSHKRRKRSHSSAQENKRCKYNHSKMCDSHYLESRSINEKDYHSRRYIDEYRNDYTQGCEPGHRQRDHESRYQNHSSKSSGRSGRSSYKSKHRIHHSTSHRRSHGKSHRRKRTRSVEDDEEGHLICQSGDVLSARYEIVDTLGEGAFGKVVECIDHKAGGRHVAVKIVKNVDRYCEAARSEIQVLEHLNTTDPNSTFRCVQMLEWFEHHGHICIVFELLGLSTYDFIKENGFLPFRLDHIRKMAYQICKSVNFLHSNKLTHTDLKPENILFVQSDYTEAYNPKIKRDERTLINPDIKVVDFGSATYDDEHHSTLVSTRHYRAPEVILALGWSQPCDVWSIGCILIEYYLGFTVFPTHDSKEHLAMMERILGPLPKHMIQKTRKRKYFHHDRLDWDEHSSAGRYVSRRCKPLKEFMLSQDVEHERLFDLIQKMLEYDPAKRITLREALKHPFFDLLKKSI
T5 sequence (Q00535 whole entry, species assumed): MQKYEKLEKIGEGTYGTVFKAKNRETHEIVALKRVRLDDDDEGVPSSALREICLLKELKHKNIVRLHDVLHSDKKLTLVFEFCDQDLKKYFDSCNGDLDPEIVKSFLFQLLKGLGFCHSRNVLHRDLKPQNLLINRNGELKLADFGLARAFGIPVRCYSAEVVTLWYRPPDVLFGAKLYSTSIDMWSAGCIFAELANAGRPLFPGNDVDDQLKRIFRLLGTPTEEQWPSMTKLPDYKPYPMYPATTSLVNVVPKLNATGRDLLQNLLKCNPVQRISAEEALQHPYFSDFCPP
T5 sequence (Q15078 99-307 partner limits assumed, species assumed): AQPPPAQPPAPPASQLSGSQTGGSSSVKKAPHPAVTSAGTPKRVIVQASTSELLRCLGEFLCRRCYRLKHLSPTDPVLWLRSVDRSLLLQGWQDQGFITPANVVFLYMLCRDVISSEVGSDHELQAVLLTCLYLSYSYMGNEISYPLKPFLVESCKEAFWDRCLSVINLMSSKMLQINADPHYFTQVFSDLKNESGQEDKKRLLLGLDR
Sequence of GSK3 (P49841 whole entry): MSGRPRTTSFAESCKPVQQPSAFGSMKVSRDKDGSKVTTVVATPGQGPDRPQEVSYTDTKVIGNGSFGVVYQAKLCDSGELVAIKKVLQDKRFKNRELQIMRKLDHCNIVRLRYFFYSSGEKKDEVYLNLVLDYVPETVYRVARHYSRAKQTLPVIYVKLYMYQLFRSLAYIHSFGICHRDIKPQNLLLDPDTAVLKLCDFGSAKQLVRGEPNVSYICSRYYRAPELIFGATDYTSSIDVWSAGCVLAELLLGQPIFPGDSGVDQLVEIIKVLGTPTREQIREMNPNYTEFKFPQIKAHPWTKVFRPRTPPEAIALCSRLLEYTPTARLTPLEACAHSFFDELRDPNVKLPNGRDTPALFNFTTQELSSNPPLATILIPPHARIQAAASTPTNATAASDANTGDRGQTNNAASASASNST

| Structure (SMILES) | IC50 (CK1) | IC50 (DYRK1A) | IC50 (CLK1) | IC50 (GSK3) | IC50 (CDK9/T) | maturation (mature form) of ABCB4-I541F (ABCB4-I541F) | IC50 (CDK2/A) | IC50 (CDK5/p25) | cell viability (HEK cells; 25 μM, % of vehicle-treated cells) | cytotoxicity (HEK cells; increasing concentrations) |
| --- | --- | --- | --- | --- | --- | --- | --- | --- | --- | --- |
| CC[C@@H](Nc1nc(NCc2ccccc2)c2ncn(C(C)C)c2n1)C(=O)O [M3, reference compound] | > 33 µM | 19 µM | > 33 µM | > 10 µM | > 33 µM | – | – | – | – | – |
| CC(C)n1cnc2c(NCc3ccccc3)nc(N[C@@H](CO)C(=O)O)nc21 [MRT2-164] | 28 µM | > 10 µM | > 33 µM | > 10 µM | 17 µM | – | – | – | – | – |
| CC[C@@H](Nc1nc(NCc2cccc(C(F)(F)F)c2)c2ncn(C3CCCC3)c2n1)C(=O)O [MRT2-239] | 4 µM | 21 µM | 9 µM | > 10 µM | 20 µM | significantly increase the expression of a mature form of ABCB4-I541F | 8 µM | 11 µM | – | – |
| CC[C@@H](Nc1nc(NCc2ccc(F)c(F)c2)c2ncn(C3CCCC3)c2n1)C(=O)O [MRT2-241] | 11 µM | 20 µM | 13 µM | > 10 µM | 8 µM | significantly increase the expression of a mature form of ABCB4-I541F | 5.1 µM | 17 µM | – | – |
| CC[C@@H](Nc1nc(NCc2ccccc2)c2ncn(C3CCCC3)c2n1)C(=O)O [MRT2-245] | 17 µM | 21 µM | 13 µM | > 10 µM | 28 µM | significantly increase the expression of a mature form of ABCB4-I541F | 6.3 µM | 15 µM | – | – |
| CC[C@@H](Nc1nc(NCc2cccc(C(F)(F)F)c2)c2ncn(C(C)C)c2n1)C(=O)O [MRT2-249] | 5 µM | 9 µM | 23 µM | > 10 µM | > 33 µM | significantly increase the expression of a mature form of ABCB4-I541F | 9 µM | 27 µM | – | – |
| CC[C@H](CO)Nc1nc(NCc2ccccc2)c2ncn(C(C)C)c2n1 [Roscovitine, (R)-roscovitine] | – | – | – | – | – | – | – | – | less than 60% | important dose-dependent cytotoxicity |
